Measurements taken from patent US20240174762A1, “METHODS, COMPOSITIONS AND USES FOR TARGETING SEMA7A IN THE DIAGNOSIS AND TREATMENT OF HEALTH CONDITIONS” (THE REGENTS OF THE UNIVERSITY OF COLORADO, A BODY CORPORATE, priority 2021, published 2024).

Test system: human MCF7 model of ER+ breast cancer
Experiment: ER+ SEMA7A expressing tumors, human MCF7 model
Format: in vivo, mice
Conditions: FIG. 11
From the text: FIGS. 11A-11H represents various graphs and images of tumor analysis and treatment according to various aspects of the disclosure. (A) represents analysis for relapse free survival of breast cancer patients treated with endocrine therapy assessed for SEMA7A levels; (B) MCF7 tumor cell growth in mice treated with endocrine therapy (e.g., Fulvestrant); (C) Lung metastasis of MCF7 in mice from 11B; (D) is a representative image illustrating BCL2 expression in SEMA7A OE cells; (E) MCF7 tumor growth in mice treated with endocrine therapy and a Bcl-2 inhibitor (e.g., Venetoclax) indicated by the arrows; (F) Lung metastasis in mice from […] above; (G) illustrates clonogenic growth of MCF7 EV or SEMA7A OE cells treated with 5 μM SU6656; clonogenic data are normalized to vehicle controls; and (H) represents clonogenic growth of MCF7 EV or SEMA7A OE cells treated with a composition according to various aspects of the disclosure.
In another exemplary method, ER+SEMA7A expressing tumors are resistant to anti-estrogen-based therapy (Fulvestrant), anti-CDK4/6 therapy (Palbociclib), and chemotherapy but are sensitive to inhibition of cell survival pathways. […]

SMILES: C[C@]12CC[C@@H]3c4ccc(O)cc4C[C@@H](CCCCCCCCC[S+]([O-])CCCC(F)(F)C(F)(F)F)[C@H]3[C@@H]1CC[C@@H]2O (stereo partly shown) [Fulvestrant]
- response of ER+SEMA7A expressing tumors to therapy: resistant
